Measurements published in paper PMC5336524 (Drug testing and analysis, 2016).
Where two headings read alike, the source gives them in different places.

Columns and labels:
[1] = target: T1, dopamine transporters (DAT) (Rattus norvegicus, UniProt P23977); test: [3H]dopamine uptake inhibition in rat brain synaptosomes; type: biochemical; conditions: 5 nM [3H]dopamine, mean ± SD, n = 3, inactive = no inhibition at 10,000 nM; for IC50: [3H]DA uptake via DAT IC50, rat brain synaptosomes
[2] = target: T2, norepinephrine transporters (NET) (Rattus norvegicus, UniProt Q63380); test: [3H]norepinephrine uptake inhibition in rat brain synaptosomes; type: biochemical
T2 sequence (Q63380 1-617): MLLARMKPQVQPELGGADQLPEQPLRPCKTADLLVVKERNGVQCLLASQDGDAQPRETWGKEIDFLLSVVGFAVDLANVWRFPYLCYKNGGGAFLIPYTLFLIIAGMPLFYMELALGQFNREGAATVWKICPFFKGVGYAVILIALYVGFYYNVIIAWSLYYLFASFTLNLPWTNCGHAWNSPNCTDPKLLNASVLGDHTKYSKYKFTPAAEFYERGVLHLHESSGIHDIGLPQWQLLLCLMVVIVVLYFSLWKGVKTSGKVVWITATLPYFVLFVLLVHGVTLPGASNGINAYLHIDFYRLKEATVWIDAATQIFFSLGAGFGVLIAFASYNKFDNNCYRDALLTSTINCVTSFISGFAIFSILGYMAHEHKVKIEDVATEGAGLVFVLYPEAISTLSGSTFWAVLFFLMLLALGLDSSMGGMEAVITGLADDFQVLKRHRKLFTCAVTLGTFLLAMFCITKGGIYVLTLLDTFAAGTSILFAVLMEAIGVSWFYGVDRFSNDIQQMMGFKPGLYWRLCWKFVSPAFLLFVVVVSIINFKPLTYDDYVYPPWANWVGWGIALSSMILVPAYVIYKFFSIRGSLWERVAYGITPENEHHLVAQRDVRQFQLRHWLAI

[3] = target: serotonin transporters (SERT) (Rattus norvegicus, UniProt P31652); test: [3H]serotonin uptake inhibition in rat brain synaptosomes; type: biochemical
Chain of serotonin transporters (SERT) (P31652 whole entry): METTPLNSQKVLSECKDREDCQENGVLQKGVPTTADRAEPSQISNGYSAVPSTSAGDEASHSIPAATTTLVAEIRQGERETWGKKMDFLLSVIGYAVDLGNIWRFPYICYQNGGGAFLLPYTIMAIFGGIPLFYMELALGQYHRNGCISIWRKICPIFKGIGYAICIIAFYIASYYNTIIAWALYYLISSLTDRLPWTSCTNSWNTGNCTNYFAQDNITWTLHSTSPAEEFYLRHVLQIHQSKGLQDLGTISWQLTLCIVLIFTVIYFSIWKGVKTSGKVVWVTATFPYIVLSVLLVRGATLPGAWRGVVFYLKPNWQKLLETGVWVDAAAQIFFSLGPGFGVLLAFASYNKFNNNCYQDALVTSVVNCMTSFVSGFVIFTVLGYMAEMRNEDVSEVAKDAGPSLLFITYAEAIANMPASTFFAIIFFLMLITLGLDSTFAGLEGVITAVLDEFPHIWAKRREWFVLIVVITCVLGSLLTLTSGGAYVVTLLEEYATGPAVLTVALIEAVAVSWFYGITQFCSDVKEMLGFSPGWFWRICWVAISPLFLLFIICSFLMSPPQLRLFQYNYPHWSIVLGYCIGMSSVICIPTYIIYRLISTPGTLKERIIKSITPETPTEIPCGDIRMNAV

[4] = target: T1, dopamine transporters (DAT); test: [3H]MPP+ release via DAT from rat brain synaptosomes; type: biochemical; conditions: for [3H]MPP+ release via DAT EC50: rat brain synaptosomes, 9 nM [3H]MPP+, mean ± SD, n = 3, inactive = efficacy less than 33% of maximal release
[5] = target: T2, norepinephrine transporters (NET); test: [3H]MPP+ release via NET from rat brain synaptosomes; type: biochemical; conditions: for [3H]MPP+ release via NET EC50: rat brain synaptosomes, 9 nM [3H]MPP+, mean ± SD, n = 3, inactive = efficacy less than 33% of maximal release
5-HT transporters (SERT) = 5-HT transporters (SERT) (Rattus norvegicus, UniProt P31652); test: [3H]5-HT release via SERT from rat brain synaptosomes; type: biochemical
Chain of 5-HT transporters (SERT) (P31652 whole entry): as above

[6] = Stability of N-methoxymephedrone; type: physicochemical; conditions: solid; over time converts from a colourless solid to a brown solid; hygroscopic
[7] = ratio of uptake IC50 values versus mexedrone
[8] = [3H]5-HT release via SERT EC50, rat brain synaptosomes, 5 nM [3H]5-HT, mean ± SD, n = 3, inactive = efficacy less than 33% of maximal release

T1 sequence (P23977 whole entry): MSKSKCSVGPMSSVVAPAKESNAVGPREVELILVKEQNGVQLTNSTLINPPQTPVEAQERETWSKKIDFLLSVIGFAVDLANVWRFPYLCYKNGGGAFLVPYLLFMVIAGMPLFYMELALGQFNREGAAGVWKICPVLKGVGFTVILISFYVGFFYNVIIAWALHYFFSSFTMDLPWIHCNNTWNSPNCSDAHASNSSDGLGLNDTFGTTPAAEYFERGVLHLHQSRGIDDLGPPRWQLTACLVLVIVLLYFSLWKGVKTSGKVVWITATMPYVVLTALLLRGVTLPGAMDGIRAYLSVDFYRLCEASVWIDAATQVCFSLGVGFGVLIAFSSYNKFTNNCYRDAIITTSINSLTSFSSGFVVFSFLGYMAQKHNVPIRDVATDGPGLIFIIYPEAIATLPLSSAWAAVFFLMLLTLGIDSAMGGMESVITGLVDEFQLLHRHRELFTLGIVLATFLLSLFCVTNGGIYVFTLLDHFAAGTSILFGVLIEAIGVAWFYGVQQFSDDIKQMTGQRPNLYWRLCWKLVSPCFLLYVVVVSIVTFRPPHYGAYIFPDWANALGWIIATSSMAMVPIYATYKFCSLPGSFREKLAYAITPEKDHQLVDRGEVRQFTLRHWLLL

| Structure (SMILES) | [3H]DA uptake via DAT IC50 ([1]; rat brain synaptosomes) | [3H]NE uptake via NET IC50 ([2]; rat brain synaptosomes, 10 nM [3H]norepinephrine, mean ± SD, n = 3, inactive = no inhibition at 10,000 nM) | [3H]5-HT uptake via SERT IC50 ([3]; rat brain synaptosomes, 5 nM [3H]serotonin, mean ± SD, n = 3, inactive = no inhibition at 10,000 nM) | [3H]MPP+ release via DAT EC50 [4] | [3H]MPP+ release via NET EC50 [5] | [3H]5-HT release via SERT EC50 (5-HT transporters (SERT); rat brain synaptosomes, 5 nM [3H]5-HT, mean ± SD, n = 3, inactive = efficacy less than 33% of maximal release) | IC50 [1] [nM] | IC50 [2] [nM] | fold more potent than mexedrone at NET (uptake inhibition) [2, 7] [fold] | IC50 [3] [nM] | fold more potent than mexedrone at SERT (uptake inhibition) [3, 7] [fold] | EC50 [4] [nM] | EC50 [5] [nM] | EC50 (5-HT transporters (SERT)) [nM] | stability in crystalline form [6] | EC50 (5-HT transporters (SERT); [8]) [nM] | EC50 (5-HT transporters (SERT); releasing activity at SERT EC50, rat brain synaptosomes) [nM] |
| --- | --- | --- | --- | --- | --- | --- | --- | --- | --- | --- | --- | --- | --- | --- | --- | --- | --- |
| CNC(CCl)C(=O)c1ccc(C)cc1 (stereo not drawn) [α-Chloromethylmephedrone, 3-chloro-2-(methylamino)-1-(4-methylphenyl)propan-1-one] | inactive | inactive | inactive | inactive | inactive | inactive | – | – | – | – | – | – | – | – | – | – | – |
| CON(C)C(C)C(=O)c1ccc(C)cc1 (stereo not shown) [N-Methoxymephedrone, 2-(Methoxy(methyl)amino)-1-(4-methylphenyl)propan-1-one] | – | – | – | – | – | – | 6090 ± 1620 | 3460 ± 728 | 2.6 | 3330 ± 1130 | 1.6 | 666 ± 132 | 313 ± 51 | 1040 ± 271 | unstable | – | – |
| CNC(COC)C(=O)c1ccc(C)cc1 (stereo not shown) [Mexedrone, 3-Methoxy-2-(methylamino)-1-(4-methylphenyl)propan-1-one] | – | – | – | inactive | inactive | – | 6840 ± 1520 | 8870 ± 3100 | – | 5290 ± 1620 | – | – | – | – | – | 2520 ± 560 | 2500 |
| CNC(C)C(=O)c1ccc(C)cc1 (stereo not shown) [Mephedrone, 2-(methylamino)-1-(4-methylphenyl)propan-1-one, reference compound] | – | – | – | – | – | – | 1060 ± 85 | 494 ± 93 | – | 470 ± 7.6 | – | 45 ± 6 | 58 ± 7 | – | – | 163 ± 30 | – |
